# Reference: paper PMC4291220 (PLoS ONE, 2015)
# How the values were obtained:
# [1] = target: T1, CLIC4 (Homo sapiens, UniProt Q9Y696); experiment: HEDS assay, GR-coupled NADPH oxidation at A340; format: biochemical; conditions: 5 uM protein, 1 mM HEDS, 1 mM GSH, pH 7, 37 °C
# [2] = target: T2, CLIC2 (Homo sapiens, UniProt O15247); experiment: HEDS assay, GR-coupled NADPH oxidation at A340; format: biochemical; conditions: 5 uM protein, 1 mM HEDS, 1 mM GSH, pH 7, 37 °C
# T2 construct: full length, N-terminal GST tag (pGEX-2T) cut with thrombin; E. coli BL21(DE3)
# T2 sequence (O15247 whole entry): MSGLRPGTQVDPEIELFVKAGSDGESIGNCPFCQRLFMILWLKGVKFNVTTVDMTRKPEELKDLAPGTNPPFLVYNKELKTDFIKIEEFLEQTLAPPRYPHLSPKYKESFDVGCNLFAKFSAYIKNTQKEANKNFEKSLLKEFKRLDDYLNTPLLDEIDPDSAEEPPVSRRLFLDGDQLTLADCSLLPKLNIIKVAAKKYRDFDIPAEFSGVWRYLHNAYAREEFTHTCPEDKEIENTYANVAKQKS
# [3] = target: T3, CLIC1 (Homo sapiens, UniProt O00299); conditions: 1 mM GSH, 250 uM NADPH, 50 nM GR, pH 7, 37 °C; reduced monomer; HEDS range printed as 0-6 mM, so printed unit uM is doubtful
# [4] = target: CLIC1 (Homo sapiens, UniProt O00299, C59A); conditions: 1 mM GSH, 250 uM NADPH, 50 nM GR, pH 7, 37 °C; HEDS range printed as 0-6 mM, so printed unit uM is doubtful
# [5] = target: T3, CLIC1; experiment: HEDS assay, GR-coupled; format: biochemical; design: full length, His-tag (pET28a) cut with thrombin; E. coli BL21(DE3); reduced monomer by SEC; conditions: 5 uM CLIC1, 1 mM HEDS, 1 mM GSH, pH 7, 37 °C; mode and site not determined
# [6] = target: T1, CLIC4; experiment: DHAR assay, GR-coupled NADPH oxidation at A340; format: biochemical; conditions: 5 uM protein, 1 mM DHA, 2 mM GSH, pH 7.5, 30 °C
# [7] = tested on: O=[Se](O)O; experiment: purified protein; conditions: 50 uM GSH, 200 uM NADPH, 50 nM GR, pH 7.5, 20 °C, reduced monomer, selenite 0-16 uM
# T1 sequence (Q9Y696 2-253): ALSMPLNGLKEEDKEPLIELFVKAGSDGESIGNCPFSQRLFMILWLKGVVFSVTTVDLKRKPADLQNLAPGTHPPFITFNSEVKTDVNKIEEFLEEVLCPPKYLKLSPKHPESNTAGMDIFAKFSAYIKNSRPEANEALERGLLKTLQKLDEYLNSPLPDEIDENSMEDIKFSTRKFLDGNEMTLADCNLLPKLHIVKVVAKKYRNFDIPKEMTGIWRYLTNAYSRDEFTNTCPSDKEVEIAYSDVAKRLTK
compound,measurement,setting,value
OCCSSCCO [2-hydroxyethyl disulfide],"HEDS assay, GR-coupled NADPH oxidation at A340",[1],all three proteins reduced the HEDS substrate when coupled with glutathione (GSH)
same,"HEDS assay, GR-coupled NADPH oxidation at A340",[2],all three proteins reduced the HEDS substrate when coupled with glutathione (GSH)
same,Km,[3],1.28 ± 0.65 µM
same,Km,[4],1.25 ± 0.65 µM
O=C(O)c1c2ccccc2cc2ccccc12 [A9C],complete inhibition at 10 uM,[5],both IAA-94 and A9C completely blocked the enzymatic activity of CLIC1
CC1(C2CCCC2)Cc2cc(OCC(=O)O)c(Cl)c(Cl)c2C1=O (centres unmarked) [IAA-94],complete inhibition at 10 uM,[5],both IAA-94 and A9C completely blocked the enzymatic activity of CLIC1
O=C1O[C@H]([C@@H](O)CO)C(=O)C1=O [dehydroascorbic acid],"DHAR assay, GR-coupled NADPH oxidation at A340",[6],NADPH consumption increased in the presence of CLIC1 or CLIC4
CLIC1 (Homo sapiens),Km,[7],4.81 ± 3.00 µM
